{"source": "patent US12251422B2", "about": "“Compositions and methods for treating neurological and other disorders” (Rush University Medical Center, priority 2018, dated 2025)", "key": {"[1]": {"test_system": "IL-1β and iNOS", "assay": "mRNA expression of IL-1β and iNOS in BV-2 microglial cells (RT-PCR, real-time PCR)", "assay_type": "cell-based", "details": "10 μM peptide 1 h", "procedure": "FIG. 4(A-S). Effect of wtTIDM and mTIDM peptides on the induction of NF-κB activation and the expression of proinflammatory molecules in microglial cells. BV-2 microglial cells preincubated with 10 μM wtTIDM/mTIDM peptides for 1 h were stimulated with 1 μM fibrillar Aβ1-42 (A-C), 1 μM MPP+ (D-F), 250 ng/ml LTA (G-I), […] LPS (J-L), 1 μM flagellin (M-O), and 1 μM CpG DNA (P-R) under serum-free condition. After 1 h of stimulation, the activation of NF-κB was monitored in nuclear extracts by EMSA (A, fibrillar Aβ; D, MPP+; G, LTA; J, LPS; M, flagellin, P; CpG DNA). After 4 h of stimulation, the mRNA expression of IL-1β (B, E, H, K, N, & Q) and iNOS (C, F, I, L, O, & R) was monitored by real-time PCR (B-C, fibrillar Aβ; E-F, MPP+; H-I, LTA; K-L, LPS; N-O, flagellin; Q-R, CpG DNA) (n=2 replicates/dose in 3 independent experiments). ap<0.001 vs control; bp<0.001 vs stimuli by two-sample t-tests. […]\nFIG. 13 (A-F). […] After 4 h of stimulation, the mRNA expression of IL-1β and iNOS was monitored by RT-PCR (n=2 replicates/condition in 3 independent experiments).\nFIG. 14 (A-D). […] A) After 1 h of stimulation, the activation of NF-κB was monitored in nuclear extracts by EMSA. […]\nDNase-digested RNA was analyzed by real-time PCR in the AβI-Prism7700 sequence detection system (Applied Biosystems, Foster City, CA) as described earlier (23, 57)."}, "[2]": {"test_system": "mice with CIA", "assay": "Collagen-induced arthritis (CIA) in DBA/1J mice", "assay_type": "in vivo, mouse", "details": "1 mg/kg body wt/d i.p. from 29 dpi", "excerpt": "FIG. 7 (A-V). The wtTIDM, but not mTIDM, peptide protects mice from experimental allergic encephalomyelitis (EAE) and collagen-induced arthritis (CIA). […] Mice (n=6 per group in two independent experiments) were scored daily. […] On 22 dpi, general motor activities were monitored using the Ethovision XT 13.0 Open Field Activity System (Noldus) (B, heat-map images representing overall motor activities; C, distance travelled; D, rearing; E, velocity; F, acceleration) and rotorod (G). Foot print analysis (H, stride length; I, print length; J, sway length; K, toe spread) was also performed, L) CIA was induced in male DBA/1J mice by bovine type II collagen immunization and from 29 dpi, mice were treated with wtTIDM and mTIDM peptides (1 mg/kg body wt/d) via i.p. injection. Mice (n=6 per group in two independent experiments) were scored daily. […] On 60 dpi, general motor activities were monitored by Ethovision System (M, heat-map images representing overall motor activities; N, distance travelled; O, rearing; P, velocity), rotorod (Q) and grip strength (R). Foot print analysis (S, stride length; T, print length; U, sway length; V, toe spread) was also performed. Six mice (n=6 per group) were used in two independent experiments. ap<0.001 & bp<0.05 vs control; cp<0.001 & dp<0.05 vs EAE or CIA by two-sample t-tests.\nFIG. 26 (A-D). Footprint analysis of mice with CIA after treatment with wtTIDM and mTIDM peptides. On the walking track, we applied white paper strips and obtained the footprints of mice of different groups (A, control; B, CIA; C, CIA+wtTIDM; D, CIA+mTIDM) on paper using black ink. A total of 30-40 steps for each group were determined. Four different footprint measurements (SL, PL, SWL, and TS) were calculated in centimeters from the recorded prints of mice. Six mice (n=6 per group) were used in two independent experiments.\nMale DBA/1J mice (8-9 week old) were immunized intradermally at the base of the tail with 100 μg of bovine type II collagen emulsified in […] Freund's Adjuvant and M. tuberculosis H37RA. […]"}}, "data": [{"smiles": "CC[C@H](C)[C@H](NC(=O)[C@H](CCCCN)NC(=O)[C@@H](NC(=O)[C@H](CCC(N)=O)NC(=O)[C@H](CCCNC(=N)N)NC(=O)[C@@H](N)CC(=O)O)[C@@H](C)CC)C(=O)N[C@@H](Cc1c[nH]c2ccccc12)C(=O)N[C@@H](Cc1ccccc1)C(=O)N[C@@H](CCC(N)=O)C(=O)N[C@@H](CC(N)=O)C(=O)N[C@@H](CCCNC(=N)N)C(=O)N[C@@H](CCCNC(=N)N)C(=O)N[C@@H](CCSC)C(=O)N[C@@H](CCCCN)C(=O)N[C@@H](Cc1c[nH]c2ccccc12)C(=O)N[C@@H](CCCCN)C(=O)N[C@@H](CCCCN)C(=O)N1CCC[C@H]1C(=O)NCC(=O)N[C@@H](C)C(=O)N[C@@H](Cc1c[nH]cn1)C(=O)N[C@@H](CCC(N)=O)C(=O)N[C@@H](CCCCN)C(=O)O", "note": "[wtTIDM, drqikiwfqnrrmkwkkPGAHQK]", "values": [{"measurement": "inhibition of expression of proinflammatory molecules (IL-1β, iNOS) induced by LTA", "setting": "[1]; 250 ng/ml LTA for 4 h", "result": "inhibited"}, {"measurement": "inhibition of expression of proinflammatory molecules (IL-1β, iNOS) induced by fibrillar Aβ", "setting": "[1]; 1 μM fibrillar Aβ1-42 for 4 h", "result": "inhibited"}, {"measurement": "clinical symptoms of CIA", "setting": "[2]", "result": "decreased"}, {"measurement": "footprint behavior in CIA mice", "setting": "[2]; 60 dpi", "result": "improved"}, {"measurement": "locomotor activities in CIA mice", "setting": "[2]; 60 dpi", "result": "enhanced"}]}]}
